From publication PMC7715017, “Conjugation of Synthetic Polyproline Moietes to Lipid II Binding Fragments of Nisin Yields Active and Stable Antimicrobials” (Frontiers in Microbiology, 2020)
Values after ≈ are worked out from the molar mass of the structure shown. Like-named read-outs stand apart in the source and are kept apart here.

Assays:
[1] = test system: L. lactis NZ9000 (pEmpty); conditions: for MIC value, L. lactis NZ9000 (pEmpty): broth microdilution (Wiegand et al. 2008), samples in 0.05% acetic acid, strain with empty plasmid
Method: (§1) All samples were resuspended in 0.05% aqueous acetic acid solution and the peptide amount was quantified by HPLC according to Schmitt et al. ([Schmitt et al., 2019]). The indicator strains MW2-MRSA, Enterococcus faecium, Listeria monocytogenes, and Lactococcus lactis were first streaked on GM17 plate and cultured overnight. The peptide samples were diluted with 0.05% acetic acid to a concentration of 40–320 μM (depending on the estimated activity of the peptide and the strain tested). The MIC value test was performed according to [Wiegand et al. (2008)].
(§2) M. flavus was used as the indicator strain for the agar well diffusion assay, and 0.15 nmol of each sample was added to each well (Figure 3). […] Antimicrobial activity of all compounds was tested by growth inhibition assays against two clinically relevant Gram-positive pathogens, i.e., methicillin resistant S. aureus and vancomycin resistant E. faecium, as well as L. monocytogenes, and L. lactis. […] For this experiment, an activity test was performed against the NSR producing strain L. lactis NZ9000 (pNSR).

Micrococcus flavus = conditions: M. flavus; 0.15 nmol per well; 30°C overnight
Method: Agar well diffusion assay against Micrococcus flavus was performed as described previously ([van Heel et al., 2013]). 0.15 nmol of each sample was added to each well. The agar plate was incubated at 30°C overnight, after which the zone of inhibition was measured.
as §2

[2] = test system: Listeria monocytogenes LMG 10470
Method: as §1, §2

[3] = test system: MW2-MRSA (Staphylococcus aureus MW2, methicillin resistant)
Method: as §1, §2

[4] = test system: Enterococcus faecium LMG 16003 (vancomycin resistant, VRE)
Method: as §1, §2

L. lactis NZ9000 (pNSR) = conditions: for MIC against NZ9000 with vs without NSR production: L. lactis NZ9000 (pNSR) vs NZ9000 (pEmpty); for MIC value, L. lactis NZ9000 (pNSR): broth microdilution (Wiegand et al. 2008), strain expressing nisin resistance protein NSR
Method: as §1, §2

[5] = MW2- ( MW2, methicillin resistant)
[6] = ratio of MICs vs nisin ABC + O6
[7] = broth microdilution (Wiegand et al. 2008), samples in 0.05% acetic acid, quantified by HPLC

## C=C1NC(=O)[C@H]([C@@H](C)CC)NC(=O)[C@H](NC(=O)/C(=C/C)NC(=O)[C@@H](N)[C@@H](C)CC)CSC[C@@H](C(=O)N[C@H]2C(=O)N3CCC[C@H]3C(=O)NCC(=O)N[C@H](C(=O)N[C@@H](CCCCN)C(=O)NCCCn3cc(CCC(=O)N4[C@H](C(=O)N5[C@H](C(=O)N6[C@H](C(=O)N7[C@H](C(=O)N8[C@H](C(=O)N9[C@H](C(=O)N[C@@H](CCCCN)C(=O)N[C@@H](CCCCN)C(=O)N[C@@H](CCCCN)C(=O)O)C[C@@H]%10CCCC[C@@H]%109)C[C@@H]9CCCC[C@@H]98)C[C@@H]8CCCC[C@@H]87)C[C@@H]7CCCC[C@@H]76)C[C@@H]6CCCC[C@@H]65)C[C@@H]5CCCC[C@@H]54)nn3)CS[C@H]2C)NC(=O)[C@H](CC(C)C)NC1=O [Nisin AB + O6K3]
[1]
  MIC value, L. lactis NZ9000 (pEmpty): 10 μM
Micrococcus flavus
  Antimicrobial activity (zone of inhibition) in agar well diffusion assay: the only active one

## C=C1NC(=O)[C@H]([C@@H](C)CC)NC(=O)[C@H](NC(=O)/C(=C/C)NC(=O)[C@@H](N)[C@@H](C)CC)CSC[C@@H](C(=O)N[C@H]2C(=O)N3CCC[C@H]3C(=O)NCC(=O)N[C@H](C(=O)N[C@@H](CCCCN)C(=O)O)CS[C@H]2C)NC(=O)[C@H](CC(C)C)NC1=O [Nisin AB, reference compound]
[1]
  MIC value, L. lactis NZ9000 (pEmpty): >40 μM
[2]; LMG 10470
  MIC value, L. monocytogenes: >320 µM
[3]; [5]
  MIC value, MW2-MRSA: >320 µM
[4]; LMG 16003
  MIC value, E. faecium: 160 µM (≈ 184 µg/mL)
Micrococcus flavus
  Antimicrobial activity (zone of inhibition) in agar well diffusion assay: not active alone

## C=C1NC(=O)[C@H]([C@@H](C)CC)NC(=O)[C@H](NC(=O)/C(=C/C)NC(=O)[C@@H](N)[C@@H](C)CC)CSC[C@@H](C(=O)N[C@H]2C(=O)N3CCC[C@H]3C(=O)NCC(=O)N[C@H](C(=O)N[C@@H](CCCCN)C(=O)N[C@H]3C(=O)NCC(=O)N[C@@H](C)C(=O)N[C@@H](CC(C)C)C(=O)N[C@@H](CCSC)C(=O)NCC(=O)N[C@H](C(=O)N[C@@H](CC(N)=O)C(=O)NCCCn4cc(CCC(=O)N5[C@H](C(=O)N6[C@H](C(=O)N7[C@H](C(=O)N[C@@H](CCCCN)C(=O)N[C@@H](CCCCN)C(=O)N[C@@H](CCCCN)C(=O)O)C[C@@H]8CCCC[C@@H]87)C[C@@H]7CCCC[C@@H]76)C[C@@H]6CCCC[C@@H]65)nn4)CS[C@H]3C)CS[C@H]2C)NC(=O)[C@H](CC(C)C)NC1=O [Nisin ABC + O3K3]
[1]
  MIC value, L. lactis NZ9000 (pEmpty): 2.5 μM
[2]; LMG 10470
  MIC value, L. monocytogenes: 80 µM
[3]; [5]
  MIC value, MW2-MRSA: 80 µM
[4]; LMG 16003
  MIC value, E. faecium: 40 µM
Micrococcus flavus
  Antimicrobial activity (zone of inhibition) in agar well diffusion assay: considerably higher than that of nisin ABC

## C=C1NC(=O)[C@H]([C@@H](C)CC)NC(=O)[C@H](NC(=O)/C(=C/C)NC(=O)[C@@H](N)[C@@H](C)CC)CSC[C@@H](C(=O)N[C@H]2C(=O)N3CCC[C@H]3C(=O)NCC(=O)N[C@H](C(=O)N[C@@H](CCCCN)C(=O)N[C@H]3C(=O)NCC(=O)N[C@@H](C)C(=O)N[C@@H](CC(C)C)C(=O)N[C@@H](CCSC)C(=O)NCC(=O)N[C@H](C(=O)N[C@@H](CC(N)=O)C(=O)NCCCn4cc(CCC(=O)N5[C@H](C(=O)N6[C@H](C(=O)N7[C@H](C(=O)N8[C@H](C(=O)N9[C@H](C(=O)N%10[C@H](C(=O)N[C@@H](CCCCN)C(=O)N[C@@H](CCCCN)C(=O)N[C@@H](CCCCN)C(=O)O)C[C@@H]%11CCCC[C@@H]%11%10)C[C@@H]%10CCCC[C@@H]%109)C[C@@H]9CCCC[C@@H]98)C[C@@H]8CCCC[C@@H]87)C[C@@H]7CCCC[C@@H]76)C[C@@H]6CCCC[C@@H]65)nn4)CS[C@H]3C)CS[C@H]2C)NC(=O)[C@H](CC(C)C)NC1=O [Nisin ABC + O6K3]
[1]
  MIC value, L. lactis NZ9000 (pEmpty): 2.5 μM
[1]; ratio of MICs vs nisin ABC
  Increase of antimicrobial activity compared to nisin ABC, L. lactis: 2 fold
[1]; [6]
  Increase of antimicrobial activity compared to nisin ABC + O6, L. lactis: twice
[2]; [7]
  MIC value, L. monocytogenes: 10 µM
[2]; ratio of MICs vs nisin
  Decrease of antimicrobial activity compared to full nisin, L. monocytogenes: 4 fold
[2]; ratio of MICs vs nisin ABC
  Increase of antimicrobial activity compared to nisin ABC, L. monocytogenes: 4 fold
[2]; [6]
  Increase of antimicrobial activity compared to nisin ABC + O6, L. monocytogenes: twice
[3]; [7]
  MIC value, MW2-MRSA: 80 µM
L. lactis NZ9000 (pNSR)
  MIC against NZ9000 with vs without NSR production: identical MICs
  MIC value, L. lactis NZ9000 (pNSR): 2.5 μM
[4]; [7]
  MIC value, E. faecium: 2.5 µM
[4]; ratio of MICs vs nisin
  Decrease of antimicrobial activity compared to full nisin, E. faecium: 8 fold
[4]; ratio of MICs vs nisin ABC
  Increase of antimicrobial activity compared to nisin ABC, E. faecium: 16 fold
[4]; [6]
  Increase of antimicrobial activity compared to nisin ABC + O6, E. faecium: twice

## C=C1NC(=O)[C@H]([C@@H](C)CC)NC(=O)[C@H](NC(=O)/C(=C/C)NC(=O)[C@@H](N)[C@@H](C)CC)CSC[C@@H](C(=O)N[C@H]2C(=O)N3CCC[C@H]3C(=O)NCC(=O)N[C@H](C(=O)N[C@@H](CCCCN)C(=O)N[C@H]3C(=O)NCC(=O)N[C@@H](C)C(=O)N[C@@H](CC(C)C)C(=O)N[C@@H](CCSC)C(=O)NCC(=O)N[C@H](C(=O)N[C@@H](CC(N)=O)C(=O)NCCCn4cc(CCC(=O)N5[C@H](C(=O)N6[C@H](C(=O)N7[C@H](C(=O)N8[C@H](C(=O)N9[C@H](C(=O)N%10[C@H](C(=O)O)C[C@@H]%11CCCC[C@@H]%11%10)C[C@@H]%10CCCC[C@@H]%109)C[C@@H]9CCCC[C@@H]98)C[C@@H]8CCCC[C@@H]87)C[C@@H]7CCCC[C@@H]76)C[C@@H]6CCCC[C@@H]65)nn4)CS[C@H]3C)CS[C@H]2C)NC(=O)[C@H](CC(C)C)NC1=O [Nisin ABC + O6]
[1]
  MIC value, L. lactis NZ9000 (pEmpty): 5.0 μM
[2]; LMG 10470
  MIC value, L. monocytogenes: 20 µM
[3]; [5]
  MIC value, MW2-MRSA: 80 µM
L. lactis NZ9000 (pNSR)
  MIC against NZ9000 with vs without NSR production: identical MICs
  MIC value, L. lactis NZ9000 (pNSR): 5.0 μM
[4]; LMG 16003
  MIC value, E. faecium: 5 µM
